Results on 25 molecules are retold here after patent US20110269763A1, “CRTH2 receptor ligands for medicinal uses” (7TM Pharma A/S, priority 2004, published 2011).

Some results are limits rather than exact numbers.

Broadly, the IC50 is the concentration at which inhibition is half-maximal.

For experiment [1], the target named is T1, human CRTH2 (Homo sapiens, UniProt Q9Y5Y4, V204A).
T1 sequence (Q9Y5Y4 1-395 V204A): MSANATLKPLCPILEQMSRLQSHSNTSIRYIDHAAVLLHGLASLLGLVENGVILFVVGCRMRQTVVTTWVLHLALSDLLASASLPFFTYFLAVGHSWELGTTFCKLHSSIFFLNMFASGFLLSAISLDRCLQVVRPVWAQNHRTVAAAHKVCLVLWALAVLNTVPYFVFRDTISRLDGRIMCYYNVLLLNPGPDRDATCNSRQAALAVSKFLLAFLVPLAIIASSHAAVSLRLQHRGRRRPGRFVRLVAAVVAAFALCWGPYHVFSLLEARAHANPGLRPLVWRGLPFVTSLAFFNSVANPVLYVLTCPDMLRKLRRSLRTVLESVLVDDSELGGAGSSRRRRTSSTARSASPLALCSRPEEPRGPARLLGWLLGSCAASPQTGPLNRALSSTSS
As to the kind of experiment: Receptor binding assay: [3H]PGD2 competition binding on whole COS-7 cells transiently transfected with CRTH2 (also stable HEK293 cells). Further details: expressed in transfected cells; host or cells: COS-7 (transient, calcium phosphate). From the text: (§1) Generation/origin of the cDNA Constructs. The coding sequence of the human CRTH2 receptor (genbank accession no NM_004778) was amplified by PCR from a human hippocampus cDNA library and inserted into the pcDNA3.1(+) expression vector (invitrogen) via 5′ HindIII and 3′ EcoRI. To generate a CRTH2-Renilla luciferase (CRTH2-Rluc) fusion protein, the CRTH2 coding sequence without a STOP codon and Rluc were amplified, fused in frame by PCR and subcloned into the pcDNA3.1(+)Zeo expression vector (invitrogen). Human β-arrestin2 (β-arr2) N-terminally tagged with GFP^2 (βarr2-GFP^2) and Renilla luciferase were purchased from BioSignal Packard Inc, (Montreal, Canada). The sequence identity of the construct was verified by restriction endonuclease digests and sequencing in both directions on an ABI Prism (Applied Biosystems, Foster City, Calif.).
(§2) Cell Culture and Transfection. COS-7 cells were grown in Dulbecco's modified Eagle's medium (DMEM) 1885 supplemented with 10% fetal bovine serum, 100 units/ml penicillin, […] streptomycin, and kept at 37° C. in a 10% CO2 atmosphere. HEK293 cells were maintained in Minimum Essential medium (MEM) supplemented with 10% (v/v) heat inactivated fetal calf serum (HIFCS), 2 mM Glutamax™-I, 1% non essential amino acids (NEAA), 1% sodium pyruvate and 10 μg/ml gentamicin. For binding experiments, COS7 cells were transiently transfected with the CRTH2 receptor using a calcium phosphate-DNA coprecipitation method with the addition of chloroquine (as described by Holst et al., 2001↓). To perform the functional Bioluminescence Resonance Energy Transfer (BRET) assays, a HEK293 cell clone stably expressing βarr2-GFP^2 and CRTH2-Rluc was generated (CRTH2-HEK293 cells).
Binding assay. 24 h after transfection COS-7 cells were seeded into 96 well plates at a density of 30.000 cells/well. Competition binding experiments on whole cells were then performed about 18-24 h later using 0.1 nM [^3H]PGD2 (NEN, 172 Ci/mmol) in a binding buffer consisting of HBSS (GIBCO) and 10 mM HEPES. Competing ligands were diluted in DMSO which was kept constant at 1% (v/v) of the final incubation volume. Total and nonspecific binding were determined in the absence and presence of 10 μM PGD2. Binding reactions were routinely conducted for 3 h at 4° C. and terminated by 2 washes (100 μl each) with ice cold binding buffer. Radioactivity was determined by liquid scintillation counting in a TOPCOUNTER (Packard) following over night incubation in Microscint 20. Stable HEK293 cells were seeded at a density of 30.000 cells/well 18-24 h prior to the binding assay which was performed essentially as described for COS7 cells above. Determinations were made in duplicates.
(§3) Curve analysis was performed with the GraphPadPrism software 3.0 (Graphpad Prism Inc., San Diego, USA) and IC50 values were calculated as a measure of the antagonistic potencies.

The target of experiment [2] is T1, human CRTH2. As to the kind of experiment: Functional antagonist BRET assay on HEK293 cells stably expressing human CRTH2-Rluc and GFP2-β-arr2. In kind it is cell-based. Further details: expressed in transfected cells. The settings on record: read-out: Antag. IC50.
Source text: as §1, §2
BRET assay. Functional BRET assays were performed on HEK293 cells stably expressing human CRTH2-Rluc and GFP^2-β-arr2. Prior to their use in the BRET assay cells were detached and re-suspended in D-PBS with 1000 mg/L L-Glucose at a density of 2×10^6 cells/mL. DeepBlueC™ was diluted to 50 μM in D-PBS with 1000 mg/L L-Glucose (light sensitive). 100 μL of cell suspension was transferred to wells in a 96-well microplate (white OptiPlate) and placed in the Mithras LB 940 instrument (BERTHOLD TECHNOLOGIES, Bad Wildbad, Germany). 12 μL/well agonist was then injected by injector 1 and 10 μL/well DeepBlueC™ was injected simultaneously by injector 2. Five seconds after the injections the light output from the well was measured sequentially at 400 nm and 515 nm, and the BRET signal (mBRET ratio) was calculated by the ratio of the fluorescence emitted by GFP^2-β-arr2 (515 nm) over the light emitted by the receptor-Rluc (400 nm). Antagonists were added before placing the microplates into the Mithras LB 940 and allowed to incubate for 15 minutes prior to the addition of agonist and DeepBlueC™. Compounds were dissolved in DMSO and the final DMSO concentration was kept constant at 1% in the assay.
as §3
(In general: BRET reads energy transfer from a luciferase to a nearby fluorophore.)

[3] abbreviates: competition with 0.1 nM [3H]PGD2, whole cells, 3 h at 4° C.
The mark [4] stands for this setting: BRET, antagonist incubated 15 minutes prior to agonist.
The mark [5] stands for this setting: receptor binding assay, Table 3.
[6] abbreviates: functional antagonist assay, Table 3.

Turning to `O=C(O)COc1ccccc1C=NNC(=O)CSc1nnc(-c2ccc(Cl)cc2)n1-c1ccccc1` [D156], the IC50 on human CRTH2 [1] (setting [3]) was below 500 nM; on human CRTH2 [2] (setting [4]) it was 500 to 5000 nM.
For `O=C(O)COc1ccc([N+](=O)[O-])cc1C(=O)c1cnn(-c2ccccc2Br)c1` [D28, 4-Nitro-2-[1-(2-bromophenyl)-1H-pyrazole-4-carbonyl]phenoxyacetic acid], in that order: below 500 nM and below 500 nM.
For `O=C(O)COc1ccc(Br)cc1C(=O)c1cnn(-c2ccc(OC(F)(F)F)cc2)c1` [D32], in that order: below 500 nM and below 500 nM.
As to `O=C(O)COc1ccc(Br)cc1-c1nc(-c2ccc(F)cc2)no1` [D100, {4-Bromo-2-[3-(4-fluoro-phenyl)-[1,2,4]oxadiazol-5-yl]phenoxy}acetic acid], the IC50 at human CRTH2 [1] (setting [5]) and on human CRTH2 [2] (setting [6]) was below 500 nM throughout.
As to `O=C(O)COc1ccccc1C=NNC(=O)c1ccnc(-c2ccccc2)c1` [D155], the figures for the IC50 on human CRTH2 [1] (setting [3]) and on human CRTH2 [2] (setting [4]) were below 500 nM and 500 to 5000 nM, respectively.
In the case of `CCc1cc(Br)ccc1-n1cc(C(=O)c2cc(Br)ccc2OC(C)C(=O)O)cn1` (centres unmarked) [D46, 2-{4-Bromo-2-[1-(4-bromo-2-ethylphenyl)-1H-pyrazole-4-carbonyl]phenoxy}propionic acid], the IC50 on human CRTH2 [1] (setting [3]) and on human CRTH2 [2] (setting [4]) was below 500 nM throughout.
Regarding `COc1ccc(Cc2noc(-c3cc(Br)ccc3OCC(=O)O)n2)cc1OC` [D124, {4-Bromo-2-[3-(3,4-dimethoxybenzyl)-[1,2,4]oxadiazol-5-yl]phenoxy}-acetic acid], the IC50 at human CRTH2 [1] (setting [5]) and on human CRTH2 [2] (setting [6]) was below 500 nM throughout.
Consider `O=C(O)COc1ccc(Br)cc1-c1nc(Cc2ccc(Cl)c(Cl)c2)no1` [D123, {4-Bromo-2-[3-(3,4-dichlorobenzyl)-[1,2,4]oxadiazol-5-yl]-phenoxy}acetic acid], for which the IC50 at human CRTH2 [1] (setting [5]) and at human CRTH2 [2] (setting [6]) was below 500 nM throughout.
For the molecule `O=C(O)COc1ccc(Br)cc1C(=O)c1cnn(-c2ccc(Cl)cc2)c1` [D17, 4-Bromo-2-[1-(4-chlorophenyl)-1H-pyrazole-4-carbonyl]phenoxyacetic acid], the IC50 on human CRTH2 [1] (setting [3]) and on human CRTH2 [2] (setting [4]) was below 500 nM throughout.
In the case of `O=C(O)COc1ccc([N+](=O)[O-])cc1C(=O)c1cnn(-c2ccccc2)c1` [D20, 4-Nitro-2-(1-phenyl-1H-pyrazole-4-carbonyl)phenoxyacetic acid], the IC50 on human CRTH2 [1] (setting [3]) and on human CRTH2 [2] (setting [4]) was below 500 nM in each case.
On to `Cc1cccc(Cl)c1-n1cc(C(=O)c2cc(Br)ccc2OCC(=O)O)cn1` [D76, {4-Bromo-2-[1-(2-chloro-6-methylphenyl)-1H-pyrazole-4-carbonyl]phenoxy}acetic acid], for which the IC50 at human CRTH2 [1] (setting [3]) and at human CRTH2 [2] (setting [4]) was below 500 nM each time.
Turning to `O=C(O)COc1ccc(Br)cc1-c1coc(Cc2c(Cl)cccc2Cl)n1` [D91, {4-Bromo-2-[2-(2,6-dichlorobenzyl)oxazol-4-yl]phenoxy}acetic acid], the IC50 on human CRTH2 [1] (setting [3]) and at human CRTH2 [2] (setting [4]) was below 500 nM in each case.
Turning to `O=C(O)COc1ccc(Br)cc1CC1SC(=O)N(Cc2ccc(Cl)cc2)C1=O` (centres unmarked) [D141, 4-Bromo-2-[3-(4-chlorobenzyl)-2,4-dioxothiazolidin-5-ylmethyl]phenoxyacetic acid], the IC50 on human CRTH2 [1] (setting [3]) and on human CRTH2 [2] (setting [4]) was below 500 nM in each case.
`COc1cccc(-c2noc(-c3cc(Br)ccc3OCC(=O)O)n2)c1` [D104, {4-Bromo-2-[3-(3-methoxyphenyl)-[1,2,4]oxadiazol-5-yl]phenoxy}acetic acid]: the IC50 on human CRTH2 [1] (setting [5]) and on human CRTH2 [2] (setting [6]) was below 500 nM throughout.
On to `O=C(O)COc1ccc(Br)cc1C(=O)c1cnn(-c2ccc(Br)cc2)c1` [D16, 4-Bromo-2-[1-(4-bromophenyl)-1H-pyrazole-4-carbonyl]phenoxyacetic acid], for which the IC50 at human CRTH2 [1] (setting [3]) and at human CRTH2 [2] (setting [4]) was below 500 nM each time.
Consider `Cc1ccc(Cc2noc(-c3cc(Br)ccc3OCC(=O)O)n2)cc1` [D126, {4-Bromo-2-[3-(4-methylbenzyl)-[1,2,4]oxadiazol-5-yl]phenoxy}acetic acid], for which the IC50 on human CRTH2 [1] (setting [5]) and at human CRTH2 [2] (setting [6]) was below 500 nM each time.
Regarding `O=C(O)COc1ccc(Br)cc1-c1nc(-c2c(Cl)cccc2Cl)no1` [D110, {4-Bromo-2-[3-(2,6-dichlorophenyl)-[1,2,4]oxadiazol-5-yl]phenoxy}acetic acid], the IC50 on human CRTH2 [1] (setting [5]) and on human CRTH2 [2] (setting [6]) was below 500 nM in each case.
`O=C(O)COc1ccc(Br)cc1C(=O)c1cnn(-c2c(Cl)cc(Cl)cc2Cl)c1` [D35, 4-Bromo-2-[1-(2,4,6-trichlorophenyl)-1H-pyrazole-4-carbonyl]phenoxyacetic acid]: the IC50 on human CRTH2 [1] (setting [3]) and at human CRTH2 [2] (setting [4]) was below 500 nM throughout.
On to `O=C(O)COc1ccc(Br)cc1-c1nc(-c2cccc(Cl)c2)no1` [D105, {4-Bromo-2-[3-(3-chlorophenyl)-[1,2,4]oxadiazol-5-yl]phenoxy}acetic acid], for which the IC50 on human CRTH2 [1] (setting [5]) and at human CRTH2 [2] (setting [6]) was below 500 nM in each case.
Regarding `Cc1ccc(-n2cc(C(=O)c3cc(Br)ccc3OCC(=O)O)cn2)c(C)c1` [D54, {4-Bromo-2-[1-(2,4-dimethylphenyl)-1H-pyrazole-4-carbonyl]phenoxy}acetic acid], the half-maximal inhibitory concentration (IC50) at human CRTH2 [1] (setting [3]) and at human CRTH2 [2] (setting [4]) was below 500 nM in each case.
`O=C(O)COc1ccc(Br)cc1-c1nc(Cc2ccccc2)no1` [D115, [2-(3-Benzyl-[1,2,4]oxadiazol-5-yl)-4-bromo-phenoxy]-acetic acid]: the IC50 on human CRTH2 [1] (setting [5]) and at human CRTH2 [2] (setting [6]) was below 500 nM in each case.
Turning to `CC(Oc1ccc(Br)cc1C(=O)c1cnn(-c2ccccc2)c1)C(=O)O` (racemic) [D37, 2-[4-Bromo-2-(1-phenyl-1H-pyrazole-4-carbonyl)phenoxy]propionic acid], the IC50 at human CRTH2 [1] (setting [3]) and at human CRTH2 [2] (setting [4]) was below 500 nM throughout.
As to `CCc1ccc(OCC(=O)O)c(C(=O)c2cnn(-c3c(Cl)cccc3Cl)c2)c1` [D53, {2-[1-(2,6-Dichlorophenyl)-1H-pyrazole-4-carbonyl]-4-ethylphenoxy}acetic acid], the IC50 on human CRTH2 [1] (setting [3]) and at human CRTH2 [2] (setting [4]) was below 500 nM throughout.
As to `O=C(O)COc1ccc(Br)cc1-c1nc(-c2ccccc2Cl)no1` [D108, {4-Bromo-2-[3-(2-chlorophenyl)-[1,2,4]oxadiazol-5-yl]phenoxy}acetic acid], the IC50 on human CRTH2 [1] (setting [5]) and on human CRTH2 [2] (setting [6]) was below 500 nM each time.
Turning to `COc1ccc(Cc2nc(-c3cc(Br)ccc3OCC(=O)O)co2)cc1` [D92, {4-Bromo-2-[2-(4-methoxybenzyl)oxazol-4-yl]phenoxy}acetic acid], the IC50 on human CRTH2 [1] (setting [3]) and on human CRTH2 [2] (setting [4]) was below 500 nM each time.
